{"source": "ChEMBL document CHEMBL1201862", "about": "“PubChem BioAssay data set” (2004)", "key": {"Cytochrome P450 2C9 [1]": {"molecular_target": "T1, Cytochrome P450 2C9 (Homo sapiens, UniProt P11712)", "T1 sequence (P11712 whole entry)": "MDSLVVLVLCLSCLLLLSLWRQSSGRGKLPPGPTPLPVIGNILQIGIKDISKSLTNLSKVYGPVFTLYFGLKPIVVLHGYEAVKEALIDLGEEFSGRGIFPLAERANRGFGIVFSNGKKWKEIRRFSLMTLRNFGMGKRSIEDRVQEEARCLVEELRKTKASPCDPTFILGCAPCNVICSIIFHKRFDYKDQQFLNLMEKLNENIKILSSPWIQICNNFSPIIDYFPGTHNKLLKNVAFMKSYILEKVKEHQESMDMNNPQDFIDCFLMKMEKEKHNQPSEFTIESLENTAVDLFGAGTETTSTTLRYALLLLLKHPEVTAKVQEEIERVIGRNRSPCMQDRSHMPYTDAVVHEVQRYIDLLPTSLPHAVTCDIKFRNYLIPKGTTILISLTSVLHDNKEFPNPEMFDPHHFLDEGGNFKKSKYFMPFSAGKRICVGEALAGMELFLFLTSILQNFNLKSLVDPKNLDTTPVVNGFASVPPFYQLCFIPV"}, "H9c2": {"system": "H9c2", "experiment": "cells", "type": "functional, cell-based", "conditions": "Rattus norvegicus, H9c2, Myocardium"}, "Cytochrome P450 2D6": {"molecular_target": "Cytochrome P450 2D6 (Homo sapiens, UniProt P10635)", "sequence (P10635 whole entry)": "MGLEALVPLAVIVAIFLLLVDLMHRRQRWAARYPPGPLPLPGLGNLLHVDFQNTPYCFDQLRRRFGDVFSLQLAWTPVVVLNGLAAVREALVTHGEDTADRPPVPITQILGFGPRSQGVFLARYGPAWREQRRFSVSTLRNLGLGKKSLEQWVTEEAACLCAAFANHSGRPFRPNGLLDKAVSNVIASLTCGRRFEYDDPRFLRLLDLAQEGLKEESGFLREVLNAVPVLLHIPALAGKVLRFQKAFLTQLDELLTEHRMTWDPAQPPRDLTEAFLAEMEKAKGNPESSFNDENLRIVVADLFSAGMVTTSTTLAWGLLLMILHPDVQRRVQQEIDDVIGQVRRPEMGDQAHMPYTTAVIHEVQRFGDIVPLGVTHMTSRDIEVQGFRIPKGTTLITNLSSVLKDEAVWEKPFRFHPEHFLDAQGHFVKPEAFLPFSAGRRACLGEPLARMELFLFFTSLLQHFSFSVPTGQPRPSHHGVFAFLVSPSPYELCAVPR"}, "Cytochrome P450 1A2": {"molecular_target": "T2, Cytochrome P450 1A2 (Homo sapiens, UniProt P05177)", "T2 sequence (P05177 whole entry)": "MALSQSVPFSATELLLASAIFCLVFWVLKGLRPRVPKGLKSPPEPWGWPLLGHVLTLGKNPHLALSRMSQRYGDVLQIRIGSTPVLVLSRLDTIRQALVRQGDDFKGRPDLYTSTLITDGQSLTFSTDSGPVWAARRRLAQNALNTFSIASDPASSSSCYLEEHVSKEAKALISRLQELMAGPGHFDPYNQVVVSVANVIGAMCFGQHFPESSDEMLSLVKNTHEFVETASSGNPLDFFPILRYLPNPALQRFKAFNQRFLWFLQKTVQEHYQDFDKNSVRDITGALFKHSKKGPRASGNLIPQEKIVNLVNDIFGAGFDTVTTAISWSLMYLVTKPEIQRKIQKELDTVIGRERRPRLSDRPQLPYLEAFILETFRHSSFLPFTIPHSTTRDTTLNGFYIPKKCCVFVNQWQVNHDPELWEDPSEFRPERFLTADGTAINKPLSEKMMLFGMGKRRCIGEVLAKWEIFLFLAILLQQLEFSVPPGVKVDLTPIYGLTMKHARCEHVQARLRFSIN"}, "Cytochrome P450 2C9 [2]": {"molecular_target": "T1, Cytochrome P450 2C9", "remark": "listed apart in the source"}, "[3]": {"experiment": "Trypanosoma cruzi growth suppression in host cells – NIH3T3 host cells, beta-gal luminescence, confirmation (AID 2044);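 note: intracellular parasites grown in NIH/3T3 mouse fibroblasts as host cells; luminescent beta-galactosidase reporter signal from transgenic T. cruzi replicating inside host cells; inhibitors lower the luminescence signal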", "type": "functional, cell-based"}, "[4]": {"experiment": "viability of PTEN-deleted HCT116 cells – cell-based, HCT116 PTEN knockout, dose response (AID 1047);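 note: HCT116 colon tumor cells with PTEN knocked out; cells exposed to compound for 60 hours before readout; potency for loss of cell viability measured by luminescence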", "type": "functional"}, "[5]": {"experiment": "NIH3T3 cell viability loss – ATP luminescence, mouse fibroblasts, counter-screen, dose response (AID 2010);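 note: cells exposed to compound for about 90 hours before reading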", "type": "functional, cell-based"}, "[6]": {"experiment": "viability of HCT116 lacking mutant beta-catenin – cell-based, human colon tumor, dose response (AID 1045);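 note: HCT116 colon tumor cells with beta catenin knocked out; cells exposed to compound for 60 hours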", "type": "functional"}, "[7]": {"experiment": "Luminescence Cell-Based Dose Retest to Confirm Inhibitors of Cancer Stem Cells. [Related pubchem assays (depositor defined):AID2717, AID2721]", "type": "functional", "conditions": "Homo sapiens"}, "Nonstructural protein 1": {"molecular_target": "Nonstructural protein 1 (Influenza A virus, UniProt Q194T2)", "sequence (Q194T2 whole entry)": "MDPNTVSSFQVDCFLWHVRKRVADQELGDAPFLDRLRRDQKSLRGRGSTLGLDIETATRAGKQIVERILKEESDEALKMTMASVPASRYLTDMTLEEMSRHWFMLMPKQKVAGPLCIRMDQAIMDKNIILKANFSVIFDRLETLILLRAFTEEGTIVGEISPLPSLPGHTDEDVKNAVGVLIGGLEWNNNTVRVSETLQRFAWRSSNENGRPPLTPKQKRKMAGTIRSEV", "type": "functional, Influenza A virus (A/California/07/2009(H1N1))"}, "[8]": {"experiment": "HEK-293T viability loss after treatment – luminescence, T-cell screen hits, cytotoxicity control for TCR NF-kB inhibitor project, dose response (AID 489026);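 note: cells exposed to compound about 14 hours before the viability readout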", "type": "functional, cell-based"}, "Fatty acid synthase [9]": {"molecular_target": "T3, Fatty acid synthase (Homo sapiens, UniProt P49327)", "T3 sequence (P49327 whole entry)": "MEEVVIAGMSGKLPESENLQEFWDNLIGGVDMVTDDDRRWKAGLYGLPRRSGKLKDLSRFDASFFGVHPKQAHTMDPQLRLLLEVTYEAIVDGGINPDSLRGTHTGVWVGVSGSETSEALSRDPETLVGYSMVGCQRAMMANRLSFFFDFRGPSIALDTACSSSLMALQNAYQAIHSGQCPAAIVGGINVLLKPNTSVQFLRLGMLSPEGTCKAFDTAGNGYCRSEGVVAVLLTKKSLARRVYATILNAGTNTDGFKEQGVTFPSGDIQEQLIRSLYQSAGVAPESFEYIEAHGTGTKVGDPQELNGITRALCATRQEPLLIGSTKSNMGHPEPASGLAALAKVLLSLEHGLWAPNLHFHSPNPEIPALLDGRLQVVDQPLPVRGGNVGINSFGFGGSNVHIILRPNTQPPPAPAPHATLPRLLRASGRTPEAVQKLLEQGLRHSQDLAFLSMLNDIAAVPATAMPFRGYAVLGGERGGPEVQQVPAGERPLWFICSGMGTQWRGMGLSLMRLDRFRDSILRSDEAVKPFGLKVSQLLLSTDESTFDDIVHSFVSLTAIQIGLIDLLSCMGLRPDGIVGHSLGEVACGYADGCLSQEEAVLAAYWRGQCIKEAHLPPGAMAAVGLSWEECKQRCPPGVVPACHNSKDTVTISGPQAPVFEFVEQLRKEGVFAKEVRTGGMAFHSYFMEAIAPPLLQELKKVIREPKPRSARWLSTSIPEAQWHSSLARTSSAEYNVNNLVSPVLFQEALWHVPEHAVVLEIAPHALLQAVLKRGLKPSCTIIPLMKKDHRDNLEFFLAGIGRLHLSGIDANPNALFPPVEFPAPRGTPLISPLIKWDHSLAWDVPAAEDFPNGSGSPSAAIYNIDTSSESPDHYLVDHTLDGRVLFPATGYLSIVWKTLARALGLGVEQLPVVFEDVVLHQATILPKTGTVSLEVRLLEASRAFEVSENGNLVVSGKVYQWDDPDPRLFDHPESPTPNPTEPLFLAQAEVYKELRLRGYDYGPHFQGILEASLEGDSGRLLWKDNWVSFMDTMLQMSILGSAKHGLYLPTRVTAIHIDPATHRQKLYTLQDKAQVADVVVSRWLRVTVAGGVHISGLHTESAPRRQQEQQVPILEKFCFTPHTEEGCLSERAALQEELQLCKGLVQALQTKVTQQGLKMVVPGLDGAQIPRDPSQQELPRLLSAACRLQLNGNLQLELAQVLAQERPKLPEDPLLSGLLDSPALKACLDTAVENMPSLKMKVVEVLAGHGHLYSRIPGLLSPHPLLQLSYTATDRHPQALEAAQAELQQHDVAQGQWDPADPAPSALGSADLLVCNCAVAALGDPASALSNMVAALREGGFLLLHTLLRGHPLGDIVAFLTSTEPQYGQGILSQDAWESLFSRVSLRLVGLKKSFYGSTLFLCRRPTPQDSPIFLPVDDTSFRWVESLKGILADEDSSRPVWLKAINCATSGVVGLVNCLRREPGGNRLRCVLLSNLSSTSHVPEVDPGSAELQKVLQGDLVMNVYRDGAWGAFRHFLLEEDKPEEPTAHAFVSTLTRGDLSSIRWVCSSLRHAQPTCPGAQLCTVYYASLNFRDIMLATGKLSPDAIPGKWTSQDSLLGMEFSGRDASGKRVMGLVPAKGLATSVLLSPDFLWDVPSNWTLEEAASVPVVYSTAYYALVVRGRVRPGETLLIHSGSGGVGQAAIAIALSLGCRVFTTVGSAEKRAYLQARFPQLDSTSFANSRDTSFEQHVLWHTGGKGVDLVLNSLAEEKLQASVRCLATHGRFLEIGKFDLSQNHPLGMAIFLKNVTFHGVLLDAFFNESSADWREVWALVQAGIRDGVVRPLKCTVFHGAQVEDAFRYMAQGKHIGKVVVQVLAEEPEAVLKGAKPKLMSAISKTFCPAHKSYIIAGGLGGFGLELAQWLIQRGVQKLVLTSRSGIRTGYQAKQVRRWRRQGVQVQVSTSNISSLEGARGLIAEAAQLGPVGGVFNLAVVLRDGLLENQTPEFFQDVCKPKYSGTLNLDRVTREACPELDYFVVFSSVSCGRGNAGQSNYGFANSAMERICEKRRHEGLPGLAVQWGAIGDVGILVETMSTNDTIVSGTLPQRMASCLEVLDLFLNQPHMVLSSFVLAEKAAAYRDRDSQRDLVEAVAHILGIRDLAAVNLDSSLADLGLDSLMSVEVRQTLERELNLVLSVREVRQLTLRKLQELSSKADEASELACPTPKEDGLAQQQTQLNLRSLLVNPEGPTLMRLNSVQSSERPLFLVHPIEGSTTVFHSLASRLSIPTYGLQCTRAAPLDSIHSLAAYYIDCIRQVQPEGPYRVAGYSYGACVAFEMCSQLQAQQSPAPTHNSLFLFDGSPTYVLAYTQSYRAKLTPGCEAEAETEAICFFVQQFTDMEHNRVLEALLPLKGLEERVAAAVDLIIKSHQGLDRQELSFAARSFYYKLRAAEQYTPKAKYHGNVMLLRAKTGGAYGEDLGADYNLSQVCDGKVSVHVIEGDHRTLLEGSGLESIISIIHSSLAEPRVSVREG", "experiment": "inhibition of human FAS-TE enzyme activity – biochemical, endpoint fluorescence intensity, uHTS hits, dose response (AID 624327);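 note: fluorescence from hydrolysis of an O-methyl fluorescein acyl ester substrate by the enzyme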", "type": "functional"}, "Fatty acid synthase [10]": {"molecular_target": "T3, Fatty acid synthase", "experiment": "inhibition of human FAS-TE enzyme activity – biochemical, kinetic fluorescence intensity, dose response (AID 624326);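 note: rate of fluorescence rise from hydrolysis of a fluorogenic O-methyl fluorescein ester substrate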", "type": "functional"}, "INS1": {"system": "INS1", "experiment": "INS-1E survival protection against cytokine death – cell-based, luminescence, retest, dose response (AID 449756);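 note: cell death triggered by IL-1 beta plus TNF-alpha plus IFN-gamma mixture; protective hits raise ATP signal compared with cytokine alone wells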", "type": "functional", "conditions": "Rattus norvegicus"}}, "note": "Activity calls are given as the source filed them.", "data": [{"smiles": "Cc1c(C(=O)c2ccc3ccccc3c2)c2cccc3c2n1[C@H](CN1CCOCC1)CO3", "values": [{"measurement": "AC50", "setting": "Cytochrome P450 2C9 [1]", "result": "inconclusive"}]}, {"smiles": "CCCc1cc2c(cc1NC(=O)c1ccc(Br)cc1)OCO2", "values": [{"measurement": "IC50", "setting": "H9c2", "result": "> 79 µM (inactive)"}, {"measurement": "AC50", "setting": "Cytochrome P450 2D6", "result": "0.708 µM (inconclusive)"}, {"measurement": "AC50", "setting": "Cytochrome P450 1A2", "result": "1.26 µM (inconclusive)"}, {"measurement": "AC50", "setting": "Cytochrome P450 2C9 [2]", "result": "2.82 µM (inconclusive)"}]}, {"smiles": "Cc1cccc(C(=O)Nc2nnc(-c3ccc(C(C)(C)C)cc3)s2)c1", "values": [{"measurement": "AC50", "setting": "Cytochrome P450 2C9 [1]", "result": "inconclusive"}]}, {"smiles": "Cc1cnc(CNc2ncnc3ccc(-c4ccc(N(C)C)cc4)cc23)cn1", "values": [{"measurement": "AC50", "setting": "Cytochrome P450 2D6", "result": "25.1 µM (inconclusive)"}]}, {"smiles": "N#C/C(=C/c1cn(-c2ccccc2)nc1-c1cccc(OCc2ccc(F)cc2)c1)C(=O)NCCCn1ccnc1", "values": [{"measurement": "EC50", "setting": "[3]", "result": "1.46 µM (active)"}, {"measurement": "EC50", "setting": "[4]", "result": "23.4 µM (active)"}, {"measurement": "EC50", "setting": "[5]", "result": "> 30 µM (not active)"}, {"measurement": "EC50", "setting": "[6]", "result": "21.7 µM (active)"}, {"measurement": "AC50", "setting": "[7]", "result": "2.5 µM (active)"}, {"measurement": "IC50", "setting": "Nonstructural protein 1", "result": "81.1 µM (active)"}]}, {"smiles": "O=C(c1csnn1)N1CCC2(CCCN(c3ccccc3)C2)CC1", "values": [{"measurement": "AC50", "setting": "Cytochrome P450 2D6", "result": "20 µM (inconclusive)"}]}, {"smiles": "COc1ccc(C(=O)c2cnc3ccccc3c2-c2ccccc2)cc1", "values": [{"measurement": "AC50", "setting": "Cytochrome P450 2D6", "result": "31.6 µM (inconclusive)"}, {"measurement": "AC50", "setting": "Cytochrome P450 2C9 [2]", "result": "7.08 µM (inconclusive)"}]}, {"smiles": "COc1ccc2c(c1)C(=O)N1[C@H]3c4cc(Br)ccc4OC[C@@H]3[C@H](c3ccccc3)[C@]1(C)C(=O)N2", "values": [{"measurement": "IC50", "setting": "[8]", "result": "> 80 µM (inactive)"}, {"measurement": "IC50", "setting": "Fatty acid synthase [9]", "result": "17.1 µM (active)"}, {"measurement": "IC50", "setting": "Fatty acid synthase [10]", "result": "18 µM (active)"}]}, {"smiles": "CC(C)CO/N=C1/[C@H]2O[C@@H]2[C@@H](O)[C@H]2[C@H]1CCn1c(=O)n(-c3ccccc3)c(=O)n12", "values": [{"measurement": "AC50", "setting": "Cytochrome P450 2C9 [1]", "result": "inconclusive"}]}, {"smiles": "Cc1cc2cc(CN(Cc3cccs3)S(=O)(=O)c3ccc4c(c3)OCCO4)c(O)nc2cc1C", "values": [{"measurement": "EC50", "setting": "[4]", "result": "33.8 µM (active)"}, {"measurement": "EC50", "setting": "[6]", "result": "30.2 µM (active)"}]}, {"smiles": "CN(C)S(=O)(=O)c1ccc(Nc2nc(C3CC3)nc3c2nnn3Cc2ccccc2Cl)cc1", "values": [{"measurement": "IC50", "setting": "[8]", "result": "> 80 µM (inactive)"}, {"measurement": "AC50", "setting": "INS1", "result": "4.71 µM (active)"}]}]}
